Experimental data reported in patent publication US7192981B2, “3,4-dihydroxyhydrocinnamic acid derivative” (Bionutrigen Co., Ltd., priority 2005, dated 2007).

Key:
[1] = target: T1, insulin receptor (Rattus norvegicus, UniProt P15127); experiment: Insulin binding assay ([125I]-insulin binding to adipocytes); details: [125I]-insulin 0.1 ng/ml, 2 h
T1 construct: endogenous in cells; host or cells: isolated primary adipocytes (rat)
Procedure: To examine whether DHH105 binds to the insulin receptor and activates the insulin signal transduction pathway, [^125I]-insulin binding to adipocytes was measured in the presence of DHH105. Isolated adipocytes were incubated in KRH buffer for 1 h to remove residual insulin. Adipocytes were then washed three times and resuspended in KRH buffer. Adipocytes (2×10^5 cells/vial) were incubated with DHH105 or insulin in the presence of [^125I]-insulin (0.1 ng/ml; Perkin-Elmer Life and Analytical Sciences, Downers Grove, Ill.) for 2 h at 16° C. in a shaking bath. To measure non-specific binding, 50 μg of unlabelled insulin (Sigma) were added to cells along with [^125I]-insulin. After incubation, adipocytes were harvested by silicon oil and the radioactivity was measured.

[2] = Body weight and gross liver observation in DHH105-treated mice; assay type: in vivo, mouse
Procedure: First, the effect of DHH105 on the non-fasting blood glucose level in ob/ob mice, an animal model of type 2 diabetes, was examined in vivo. […] DHH105 was dissolved in DMSO and emulsified in olive oil (1:50 v/v). DHH105, at a dose of 150 mg/kg body weight (b.w.) in 100 μl, was injected intraperitoneally (i.p.) every day into diabetic ob/ob mice (blood glucose level>230 mg/dl) and STZ-treated diabetic C57BL/6 mice (blood glucose level>300 mg/dl). Control mice received the same amount of olive oil without DHH105. Blood glucose levels were measured with a glucometer (One Touch Ultra, Lifescan, Milpitas, Calif.) every morning between 9:00–10:00 a.m. just before injection of DHH105.

[3] = tested on: IRS-1; experiment: Phosphorylation of IRS-1 in adipocytes, immunoprecipitation and western blot; assay type: cell-based; details: SD rat adipocytes, DHH105 2 h, vs untreated control
Procedure: (§1) Adipocytes treated with DHH105 for 2 h or insulin for 10 min were homogenized in 5 ml lysis buffer (20 mM Tris, pH 7.4, 1% SDS, 10% glycerol, 150 mM NaCl, 2 mM EDTA, 20 mM NaF, 1 mM NaVO4, 2 mM sodium pyrophosphate, protease inhibitor cocktail, and phosphatase inhibitor cocktail) with a teflon pestle (15 strokes). Homogenized adipocytes were sonicated for 3 min and solubilized for 30 min. The homogenate was centrifuged at 3,000 g for 10 min at 4° C. The protein concentration of the lysate was determined by the Bradford method. After dilution (1 μg/μl protein concentration), the lysates were incubated with anti-insulin receptor-β (IR-β) antibody (Upstate Biotech, Charlottesville, Va.) or anti-IRS-1 antibody (Upstate Biotech) overnight at 4° C. Protein A Sepharose beads (100 μl, Amersham Pharmacia Biotech) were added and the mixture was gently rocked for 2 h at 4° C. […] The membranes were washed and the immunoreactive proteins were detected with an enhanced chemoluminescence western blot detection kit (Amersham Pharmacia Biotech). To examine whether DHH105 treatment increases autophosphorylation of the insulin receptor and its tyrosine kinase activity, the phosphorylation of IR-β and IRS-1 were measured by immunoprecipitation and western blot in DHH105-treated adipocytes from SD rats. […]

[4] = target: T2, IR-β (Rattus norvegicus, UniProt P15127); experiment: Phosphorylation of IR-β in adipocytes, immunoprecipitation and western blot; assay type: cell-based; details: SD rat adipocytes, DHH105 2 h, vs untreated control
T2 construct: DHH105-treated adipocytes from SD rats; endogenous in cells; host or cells: adipocytes from SD rats
Procedure: as §1

T1 sequence (P15127 27-759 limits assumed): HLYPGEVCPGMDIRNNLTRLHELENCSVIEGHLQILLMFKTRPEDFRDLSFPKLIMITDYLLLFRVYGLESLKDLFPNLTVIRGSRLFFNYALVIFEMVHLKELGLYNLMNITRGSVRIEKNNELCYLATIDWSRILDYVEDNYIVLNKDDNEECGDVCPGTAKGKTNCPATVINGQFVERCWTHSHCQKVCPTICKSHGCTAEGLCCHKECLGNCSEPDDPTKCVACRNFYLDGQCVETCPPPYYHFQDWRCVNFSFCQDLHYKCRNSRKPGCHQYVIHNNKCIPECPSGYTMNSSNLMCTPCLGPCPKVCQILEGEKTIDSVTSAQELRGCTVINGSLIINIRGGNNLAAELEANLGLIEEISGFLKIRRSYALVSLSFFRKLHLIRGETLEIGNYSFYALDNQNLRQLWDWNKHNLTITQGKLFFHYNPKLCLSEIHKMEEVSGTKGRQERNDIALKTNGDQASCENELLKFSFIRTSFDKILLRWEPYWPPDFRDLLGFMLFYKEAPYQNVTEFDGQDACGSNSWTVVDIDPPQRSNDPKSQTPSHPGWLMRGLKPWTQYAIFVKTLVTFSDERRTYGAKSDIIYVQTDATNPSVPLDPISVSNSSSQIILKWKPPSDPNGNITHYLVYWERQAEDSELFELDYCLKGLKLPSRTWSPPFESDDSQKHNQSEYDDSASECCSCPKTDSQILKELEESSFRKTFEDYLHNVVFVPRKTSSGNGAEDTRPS
T1 sequence (P15127 764-1383 partner limits assumed): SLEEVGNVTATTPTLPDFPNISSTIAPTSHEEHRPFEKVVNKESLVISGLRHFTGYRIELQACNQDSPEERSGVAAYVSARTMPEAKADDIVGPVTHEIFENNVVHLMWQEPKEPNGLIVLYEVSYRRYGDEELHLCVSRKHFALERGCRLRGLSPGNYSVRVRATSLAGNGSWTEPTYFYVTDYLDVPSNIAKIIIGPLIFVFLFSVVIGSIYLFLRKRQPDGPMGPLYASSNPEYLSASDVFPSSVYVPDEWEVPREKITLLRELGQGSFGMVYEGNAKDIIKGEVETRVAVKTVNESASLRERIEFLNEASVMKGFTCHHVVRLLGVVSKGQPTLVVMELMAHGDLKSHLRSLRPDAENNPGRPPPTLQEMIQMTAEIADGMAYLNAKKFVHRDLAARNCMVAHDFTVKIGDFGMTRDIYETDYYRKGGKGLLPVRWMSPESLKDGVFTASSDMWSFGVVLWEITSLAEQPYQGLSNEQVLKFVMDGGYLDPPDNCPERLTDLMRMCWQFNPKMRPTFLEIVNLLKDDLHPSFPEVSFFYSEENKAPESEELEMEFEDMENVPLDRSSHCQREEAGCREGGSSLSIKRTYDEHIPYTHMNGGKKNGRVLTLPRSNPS
T2 sequence (P15127 764-1383 limits assumed): as the sequence (P15127 764-1383 partner limits assumed) above
T2 sequence (P15127 27-759 limits assumed): as the sequence (P15127 27-759 limits assumed) above

binding of [125I]-insulin to adipocytes, DHH105 together with insulin ([1]; 500 μM DHH105 plus insulin): further inhibited | binding of [125I]-insulin to adipocytes ([1]; 16° C.): inhibited | phosphorylation of IR-β [4]: increased
SMILES: O=C(CCc1ccc(O)c(O)c1)OCc1cccc2ccccc12 [DHH105, 3,4-dihydroxyhydrocinnamic acid naphthalene methyl ester]
gross lesions of the liver ([2]; DHH105-treated mice): no gross lesions | body weight, treated vs untreated mice ([2]; DHH105-treated vs untreated mice): no differences | phosphorylation of IRS-1 [3]: increased
